PMC7536268, “Increased Antimicrobial Activity of Colistin in Combination With Gamithromycin Against Pasteurella multocida in a Neutropenic Murine Lung Infection Model” (Frontiers in Microbiology, 2020)
Where a SMILES comes first, the peptide text is derived from it. Bridges are numbered along the chain shown (N, C = ends). [ ]: non-standard residue; d: D form. The star is where a group is joined. X1 = CC[C@H](C)CCCCC(=O)*; Dab = NCC[C@H](N)C(=O)O

Legend:
[1] = system: Pasteurella multocida strains (D18, T5, and WJ11); test: Mutant prevention concentration (MPC); type: cell-based; details: drug alone, agar, 72 h, 37°C
Description: The bacteria-containing broth was centrifuged at 3500 g for 15 min and resuspended in fresh MH II broth to obtain a solution containing 3 × 10^10 CFU/mL of P. multocida. The agar plates were produced by adding different concentrations of colistin and gamithromycin alone or in combination into the Mueller-Hinton agar medium supplemented with sterile defibrinated sheep blood. Aliquots of 100-μL inoculum were plated on four agar plates containing the same concentration of drug(s). Mutant prevention concentration (MPC) was defined as the lowest concentration that prevented the growth of bacteria after 72 h of incubation at 37°C.

[2] = system: Pasteurella multocida strains (D18, T5, and WJ11); test: In vivo pharmacodynamics, neutropenic murine pneumonia model
Description: (§1) Five-week-old specific-pathogen-free female Institute of Cancer Research (ICR) mice weighing 20–22 g obtained from the Laboratory Animal Center of the Southern Medical University (SCXK 2016-0041, Guangzhou) were used in this experiment. Animals were maintained in the Laboratory Animal Center of the South China Agricultural University (SYXK 2014-0136, Guangzhou) in accordance with the National Standards for Laboratory Animals in China (GB 14925–2010). Neutropenia was generated by intraperitoneal injection of cyclophosphamide [TCI (Shanghai) Development Co., Ltd., Shanghai, China) 4 days before the 150-mg/kg dose and 1 day before the 100-mg/kg dose prior to lung infection ([Vogelman et al., 1988]). Three strains, namely, D18, T5, and WJ11, were incubated in MH II broth. Experimental mice were anesthetized via inhalation of isoflurane and then were hung on an adjustable-angled bracket by hooking their teeth. Endotracheal intubation was performed by importing 50 μL of a logarithmic-phase bacterial suspension (10^8–10^9 CFU/mL) into the lung through the larynges rimae using a preinserted tracheal tube ([Zhou et al., 2018]). All experimental protocols were approved by the Committee on the Ethics of Animals of South China Agricultural University.

[3] = system: Pasteurella multocida strains (D18, T5, and WJ11); test: In vitro postantibiotic effect (PAE); type: cell-based; details: 1 h exposure
Description: For determination of the postantibiotic effect (PAE) of colistin, gamithromycin was tested on D18, T5, and WJ11 isolates alone and in combination with colistin, and a 1 × 10^8 CFU/mL inoculum of each isolate was used after overnight incubation in MH II broth. A 0.5-mL sample of the inoculum and 0.5 mL of colistin or gamithromycin alone at 1 × or 4 × MIC, was added to 4 mL of fresh broth and incubated in a 37°C water bath for 1 h. Meanwhile, the same operation was performed for combinations of colistin at 0.25–0.5 mg/L and gamithromycin at 0.125–0.25 mg/L. Controls without drugs were included. Each inoculum was diluted 1000-fold after incubation for 1 h, and this was the starting point for PAE testing (0 h). Aliquots of 0.1 mL were withdrawn to count the bacterial burden as described above in time-kill tests at 0, 1, 2, 4, and 6 h. PAE was calculated using the equation: PAE = T – C, where T and C represent the time taken for drug-exposed (T) and control (C) cultures to increase by 1 log10 after drugs were removed ([Mackenzie and Gould, 1993]).

[4] = system: Pasteurella multocida strains; test: Checkerboard combination susceptibility testing (MIC in combination, FIC index); type: cell-based; details: colistin combined with gamithromycin, 37°C 24 h
Description: The susceptibility of the selected P. multocida isolates and the quality control isolate (ATCC 25922) to colistin, gamithromycin, cefquinome, enrofloxacin, tilmicosin, tylosin tartrate, and florfenicol alone was determined using the microdilution method in broth (conducted in triplicate) according to the guiding principles of the CLSI. Based on the action mechanism of each drug, the antimicrobial activity of colistin or cefquinome (drug A) in combination with gamithromycin, enrofloxacin, tilmicosin, tylosin tartrate, or florfenicol (drug B) was determined with the checkerboard method, according to the minimal inhibitory concentration (MIC) of each drug. Briefly, 50 μL of MH II broth was added to each well, and 50 μL of the indicated concentration of colistin or cefquinome was added into the first well of each line. This was followed by multiproportion dilution. Next, 50-μL samples of different concentrations of gamithromycin or the other drugs mentioned above were added to the dilution medium, and a 100 μL inoculum with a cell density of ∼1 × 10^6 colony-forming units (CFU)/mL was added to each well. The plates were then incubated at 37°C for 24 h. According to the EUCAST definitive document E.Def 1.2 ([Mccullough, 2010]), the fractional inhibitory concentration (FIC) index for combined administrations was defined as the sum of the FIC of drug A and the FIC of drug B, where FIC is the MIC of the drug combined with other drugs, divided by the MIC of the drug alone.

[5] = PK in plasma and lung tissue of neutropenic lung-infected mice; details: for AUC(0-t): Plasma AUClast; for Cmax: Plasma Cmax
Description: as §1
Pharmacokinetics analysis of colistin (2.5 and 5 mg/kg), gamithromycin (1.5, 3, 6, 12, and 24 mg/kg) alone and in combination (2.5 mg/kg colistin, 3 mg/kg gamithromycin) was performed in 176 neutropenic lung-infected ICR mice following subcutaneous administration (SC). Plasma and lung tissue samples were withdrawn at the specified time point (four mice at each time point).
The concentration of colistin and gamithromycin in plasma and lung tissue was measured using a previously reported method ([Ma et al., 2008]; [Huang et al., 2010]; [Fu et al., 2018]). The limit of quantification for both colistin and gamithromycin was 0.01 mg/L in plasma and 0.2 μg/g in lung tissue. Recovery of colistin and gamithromycin in plasma and lung ranged between 88.2 and 113.1%. All inter- and intra-assay coefficients of variation were <10%. PK parameters in plasma and lung samples were estimated using a non-compartmental analysis method with WinNonlin software version 5.2.1 (Pharsight, St Louis, MO, United States).

[6] = strain D18, 1 × MIC (colistin 32 mg/L, gamithromycin 0.5 mg/L)
[7] = strain T5, 1 × MIC (colistin 32 mg/L, gamithromycin 0.5 mg/L)
[8] = strain WJ11, 1 × MIC (colistin 1 mg/L, gamithromycin 0.5 mg/L)
[9] = colistin 2.5 mg/kg SC alone, neutropenic lung-infected mice, lung tissue
[10] = colistin 5 mg/kg SC alone, neutropenic lung-infected mice, lung tissue
[11] = female, ICR, mouse, in vivo, sc, 2.5 mg/kg, colistin 2.5 mg/kg SC alone, neutropenic lung-infected mice, total plasma
[12] = female, ICR, mouse, in vivo, sc, 2.5 mg/kg, given in combination SC (2.5 mg/kg colistin, 3 mg/kg gamithromycin), total plasma
[13] = female, ICR, mouse, in vivo, sc, 5 mg/kg, colistin 5 mg/kg SC alone, neutropenic lung-infected mice, total plasma
[14] = given in combination SC (2.5 mg/kg colistin, 3 mg/kg gamithromycin), lung tissue

CC[C@H](C)CCCCC(=O)N[C@@H](CCN)C(=O)N[C@H](C(=O)N[C@@H](CCN)C(=O)N[C@H]1CCNC(=O)[C@H]([C@@H](C)O)NC(=O)[C@H](CCN)NC(=O)[C@H](CCN)NC(=O)[C@H](CC(C)C)NC(=O)[C@@H](CC(C)C)NC(=O)[C@H](CCN)NC1=O)[C@@H](C)O [Colistin] (X1-[Dab]T[Dab][Dab][Dab][dL]L[Dab][Dab]T; lactam 4-C)
MPC ([1]; strain D18): 128 mg/L | MPC ([1]; strain T5): 128 mg/L | MPC ([1]; strain WJ11): 64 mg/L | in vivo PD outcome ([2]; colistin alone 2.5 or 5 mg/kg SC every 12 h, all three isolates, 24 h): failure to inhibit growth of bacteria | PAE [3, 6]: 0.98 h | PAE ([3]; strain D18, 4 × MIC): 3.79 h | PAE [3, 7]: 0.29 h | PAE ([3]; strain T5, 4 × MIC): 2.83 h | PAE [3, 8]: 0.96 h | PAE ([3]; strain WJ11, 4 × MIC): 2.34 h | MIC (in combination) ([4]; strain CVCC 444): 0.125 µg/mL | MIC (in combination) ([4]; strain D18): 0.25 µg/mL | MIC (in combination) ([4]; strain PmP2 (pig)): 0.125 µg/mL | MIC (in combination) ([4]; strain PmP17 (pig)): 0.125 µg/mL | MIC (in combination) ([4]; strain T5): 0.125 µg/mL | MIC (in combination) ([4]; strain WJ11): 0.125 µg/mL | MIC (in combination) ([4]; strain WN71): 0.0625 µg/mL | MIC (in combination) ([4]; strain WW81): 0.5 µg/mL | MIC (in combination) ([4]; strain XX12): 0.125 µg/mL | Lung AUClast [5, 9]: 5.22 mg⋅h/kg | Lung Cmax [5, 9]: 3.37 mg/kg | Lung T1/2 [5, 9]: 76.8 min | Lung Tmax [5, 9]: 30 min | Plasma Tmax ([5]; colistin 2.5 mg/kg SC alone, neutropenic lung-infected mice, total plasma, non-compartmental): 30 min | Lung AUClast [5, 10]: 12.20 mg⋅h/kg | Lung Cmax [5, 10]: 5.54 mg/kg | Lung T1/2 [5, 10]: 103 min | Lung Tmax [5, 10]: 45 min | AUC(0-t) [5, 11]: 3510 ng·h/mL | AUC(0-t) [5, 12]: 3880 ng·h/mL | Cmax [5, 11]: 3140 ng/mL | Cmax [5, 12]: 3330 ng/mL | half-life ([5]; female, ICR, mouse, in vivo, sc, 2.5 mg/kg, Plasma T1/2, colistin 2.5 mg/kg SC alone, neutropenic lung-infected mice, total plasma): 40.2 min | half-life ([5]; female, ICR, mouse, in vivo, sc, 2.5 mg/kg, Plasma T1/2, given in combination SC (2.5 mg/kg colistin, 3 mg/kg gamithromycin), total plasma): 36.6 min | Tmax ([5]; female, ICR, mouse, in vivo, sc, 5 mg/kg): 45 min | AUC(0-t) [5, 13]: 10500 ng·h/mL | Cmax [5, 13]: 6330 ng/mL | half-life ([5]; female, ICR, mouse, in vivo, sc, 5 mg/kg, Plasma T1/2, colistin 5 mg/kg SC alone, neutropenic lung-infected mice, total plasma): 49.8 min | Lung AUClast [5, 14]: 5.10 mg⋅h/kg | Lung Cmax [5, 14]: 2.94 mg/kg | Lung T1/2 [5, 14]: 69.6 min | Lung Tmax [5, 14]: 30 min

CCCN1C[C@H](C)[C@@H](O)[C@](C)(O)[C@@H](CC)OC(=O)[C@H](C)[C@@H](O[C@H]2C[C@@](C)(OC)[C@@H](O)[C@H](C)O2)[C@H](C)[C@@H](O[C@@H]2O[C@H](C)C[C@H](N(C)C)[C@H]2O)[C@](C)(O)C[C@H]1C [Gamithromycin]
MPC ([1]; strain D18): 1 mg/L | MPC ([1]; strain T5): 1 mg/L | MPC ([1]; strain WJ11): 1 mg/L | dose required for effective treatment ([2]; gamithromycin monotherapy every 12 h): ≥ 24 mg/kg | PAE [3, 6]: 0.21 h | PAE ([3]; strain D18, 4 × MIC): 0.51 h | PAE [3, 7]: 0.54 h | PAE ([3]; strain T5, 4 × MIC): 1.83 h | PAE [3, 8]: 0.59 h | PAE ([3]; strain WJ11, 4 × MIC): 1.16 h | MIC (in combination) ([4]; strain CVCC 444): 0.25 µg/mL | MIC (in combination) ([4]; strain D18): 0.0625 µg/mL | MIC (in combination) ([4]; strain PmP2 (pig)): 0.125 µg/mL | MIC (in combination) ([4]; strain PmP17 (pig)): 0.0625 µg/mL | MIC (in combination) ([4]; strain T5): 0.125 µg/mL | MIC (in combination) ([4]; strain WJ11): 0.25 µg/mL | MIC (in combination) ([4]; strain WN71): 0.25 µg/mL | MIC (in combination) ([4]; strain WW81): 0.25 µg/mL | MIC (in combination) ([4]; strain XX12): 0.0625 µg/mL | time of Cmax in lung tissue ([5]; mouse, in vivo): 0.25 to 1 h | Lung T1/2 ([5]; mouse, in vivo, SD): 1355 ± 111 min | Lung Tmax ([5]; mouse, in vivo, SD): 39 ± 17.4 min | Plasma T1/2 ([5]; mouse, in vivo, SD): 731.4 ± 19.8 min | Plasma Tmax ([5]; mouse, in vivo, SD): 27 ± 12.6 min
